One data set has as its system HK-2 cells. As to the kind of experiment: HK-2 cell viability, MTT assay, with or without co-cultured HLMs. Format: cell-based, human. The conditions noted are these: GA 100 µM alone. On the procedure: HK-2 cells obtained from Peking Union Medical College were maintained in D/F12 medium containing 10% fetal bovine serum, 2 mM glutamine and 1 × 10^5 U/L penicillin and streptomycin at 37 °C in a 5% CO2 atmosphere. […] The samples containing HLMs were prepared in an ice bath, and three replicates were tested for each dose. In brief, HK-2 cells (100 µL) were seeded at 3 × 10^5cells/mL in 96-well plates. After 12 h, 200 µL of the test compound was added. For the BAK and GA with HLMs group, GA was pre-incubated with NADPH in HLMs for 30 min at 37 °C and then mixed with BAK; for the other groups, all tested compounds except NADPH were mixed, and NADPH was then added to start the metabolic reaction. After 4 h of culture, 100 µL of 0.5 g/L MTT was added, and the cells were cultured for 4 h. Subsequently, 150 µL of 4% isopropanol was added to cells for 15 min at 37 °C, and the absorbance at 570 nm was then read by a microplate reader (Multiskan MK3, Thermo, USA). The relative cell viability (%) was calculated as follows: Mean Absorbance of Sample/Mean Absorbance of Vehicle Control × 100%.
For orientation: Tetrazolium assays rely on reduction of a dye to a coloured formazan, in cell work by metabolically active cells.

The next data set has as its system BAK metabolism in HLMs. As to the kind of experiment: Metabolic elimination of BAK in HLMs and its inhibition by GA (HPLC). Format: in vitro ADME, human. The settings on record: for Remaining percentage of GA (%) / Inhibition of BAK by GA (%): 30 min, mean; for Inhibition of BAK by GA, single samples / remaining of GA (%), single samples: t=30 min. On the procedure:
The HLM mixtures were prepared on ice. […] At the end of the incubation (0 or 30 min), 200 µL of methanol-acetonitrile (1:1, V:V) solution containing tanshinone II A (internal standard) was added to terminate the reaction. The mixtures were then vortexed for 2 min followed by centrifugation at 14,500 rpm for 10 min. A 10 µL aliquot of the supernatant was then injected for HPLC analysis. […] RContr is the percentage of BAK remaining in the BAK group.

The next data set addresses T1, CYP2C19 (Homo sapiens, UniProt P33261).
T1 construct: was investigated in HLMs; tissue iPhase Pharmaceutical Services (Beijing, China) Lot # 7MMC011; host or cells: pooled human liver microsomes
As to the kind of experiment: Inhibition of CYP activities by GA in HLMs (mephenytoin). Format: biochemical. On the procedure:
The samples containing HLMs were prepared in an ice bath, and three replicates of each dose were tested.
The reaction system consisted of 0.5 g/L HLMs, 1 mM NADPH, 25 µM phenacetin (CYP1A2 substrate), 25 µM tolbutamide (CYP2C9 substrate), 25 µM mephenytoin (CYP2C19 substrate), 10 µM dextromethorphan (CYP2D6 substrate) and 10 µM midazolam (CYP3A4 substrate). After incubation at 37 °C for 30 min, 200 µL of methanol containing 100 µg/L propranolol hydrochloride was added to terminate the reaction. The samples were then treated, and the corresponding substrate metabolites of CYP isoforms were detected according to a previously described method ([Shen et al., 2013]).

Molecules are shown by their SMILES. Where “and” joins values, the source holds several entries; their conditions need not be identical. Equal values may be shown once.

T1 sequence (P33261 whole entry): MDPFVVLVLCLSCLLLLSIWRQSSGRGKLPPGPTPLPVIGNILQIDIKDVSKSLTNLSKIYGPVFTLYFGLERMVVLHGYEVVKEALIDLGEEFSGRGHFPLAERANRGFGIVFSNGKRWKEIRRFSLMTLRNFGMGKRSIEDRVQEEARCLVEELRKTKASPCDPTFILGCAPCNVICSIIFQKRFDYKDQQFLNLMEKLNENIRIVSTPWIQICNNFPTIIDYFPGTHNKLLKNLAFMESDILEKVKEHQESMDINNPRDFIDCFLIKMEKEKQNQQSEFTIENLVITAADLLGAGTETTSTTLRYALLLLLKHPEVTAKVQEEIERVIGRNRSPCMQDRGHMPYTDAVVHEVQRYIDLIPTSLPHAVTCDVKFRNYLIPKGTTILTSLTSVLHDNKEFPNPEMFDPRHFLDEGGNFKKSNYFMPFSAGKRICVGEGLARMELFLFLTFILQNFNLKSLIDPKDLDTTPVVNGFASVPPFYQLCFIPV

In general, IC50 refers to the concentration needed to halve the response being measured. A high value points to lower potency. For the compound `CC1(C)[C@@H](O)CC[C@]2(C)[C@H]3C(=O)C=C4[C@@H]5C[C@@](C)(C(=O)O)CC[C@]5(C)CC[C@@]4(C)[C@]3(C)CC[C@@H]12` [GA, Glycyrrhetinic acid], the “effect on HK-2 cell survival” value in the data set on HK-2 cells was “did not affect”. For the same compound, the “Remaining percentage of GA (%)” value in the data set with BAK metabolism in HLMs (GA 12.5 µM with BAK 10 µM, HLMs) is 99.37 ± 9.39% and 99.37%; in the data set on BAK metabolism in HLMs (GA 62.5 µM with BAK 10 µM, HLMs) it was 100.7 ± 12.33% and 100.77%; in the data set on BAK metabolism in HLMs (GA 125.0 µM with BAK 10 µM, HLMs), 107.8 ± 7.54% and 107.76%. The “Inhibition of BAK by GA (%)” value with BAK metabolism in HLMs (GA 12.5 µM, BAK 10 µM, HLMs) is 23% and 22.72 ± 4.55% and 22.72%; in the data set with BAK metabolism in HLMs (GA 62.5 µM, BAK 10 µM, HLMs), 44% and 43.85 ± 22.41% and 43.85%; with BAK metabolism in HLMs (GA 125.0 µM, BAK 10 µM, HLMs), 92% and 92.00 ± 4.64%. In addition, the “Inhibition of BAK by GA, single samples” value is 17.95% and 23.22% and 27.00% in the data set on BAK metabolism in HLMs (GA 12.5 µM, BAK 10 µM); 97.25% and 88.45% and 90.28% with BAK metabolism in HLMs (GA 125 µM, BAK 10 µM). Besides, the “remaining of GA (%), single samples” value in the data set with BAK metabolism in HLMs (GA 12.5 µM, BAK 10 µM) was 94.84% and 93.11% and 110.17%; with BAK metabolism in HLMs (GA 62.5 µM, BAK 10 µM), 112.61% and 101.67% and 88.01%; in the data set on BAK metabolism in HLMs (GA 93.75 µM, BAK 10 µM), 94.57% and 101.22%; in the data set with BAK metabolism in HLMs (GA 125 µM, BAK 10 µM), 101.56% and 105.56% and 116.14%. For the same compound, the “GA concentrations at which significant inhibition of BAK metabolic clearance was observed” value in the data set on BAK metabolism in HLMs (HLMs, BAK 10 µM) was “above 12.5 µM”. 175.2 ± 1.26 µM corresponded to half-maximal inhibition on CYP2C19 (HLMs, 30 min pre-incubation with NADPH, mephenytoin 25 µM) (IC50). For the same compound, the activity at 30 min, 0.1 µM at CYP2C19 (human, human liver microsomes, probe mephenytoin (25 µM), CYP2C19-30min, GA 0.1000, vs control, read-out: Relative activity (%)) was 117%. The activity at 30 min, 1 µM on CYP2C19 (human, human liver microsomes, probe mephenytoin (25 µM), CYP2C19-30min, GA 1.0000, vs control, read-out: Relative activity (%)) is 105%. In addition, at CYP2C19 (human, human liver microsomes, probe mephenytoin (25 µM), CYP2C19-30min, GA 6.2500, vs control, read-out: Relative activity (%)), the activity at 30 min, 6.25 µM was 88%. Further, the activity at 30 min, 31.25 µM on CYP2C19 (human, human liver microsomes, probe mephenytoin (25 µM), CYP2C19-30min, GA 31.2500, vs control, read-out: Relative activity (%)) stood at 80%. Moreover, the activity at 30 min, 100 µM at CYP2C19 (human, human liver microsomes, probe mephenytoin (25 µM), CYP2C19-30min, GA 100.0000, vs control, read-out: Relative activity (%)) was determined as 72.5%. The activity at 30 min, 156.25 µM at CYP2C19 (human, human liver microsomes, probe mephenytoin (25 µM), CYP2C19-30min, GA 156.2500, vs control, read-out: Relative activity (%)) worked out at 57.9%. Besides, on CYP2C19 (human, human liver microsomes, probe mephenytoin (25 µM), CYP2C19-30min, GA 312.5000, vs control, read-out: Relative activity (%)), the activity at 30 min, 312.5 µM amounted to 0%. The activity at 30 min, […] on CYP2C19 (human, human liver microsomes, probe mephenytoin (25 µM), read-out: Relative activity (%)) was determined as 36.8%.
